Assay results taken from ChEMBL document CHEMBL1146974, “Identification and structure-activity relationships of a new series of Melanocortin-4 receptor antagonists” (Bioorg Med Chem Lett, 2006).

Legend:
Melanocortin receptor 4 [1] = target: T1, Melanocortin receptor 4 (Homo sapiens, UniProt P32245); experiment: Binding affinity to MC4R by membrane filtration assay
Melanocortin receptor 4 [2] = target: T1, Melanocortin receptor 4; experiment: Antagonist activity against MC4R by cAMP functional assay
[3] = target: Voltage-gated inwardly rectifying potassium channel KCNH2 (Homo sapiens, UniProt Q12809); experiment: Binding affinity to hERG
Voltage-gated inwardly rectifying potassium channel KCNH2, sequence (Q12809 whole entry): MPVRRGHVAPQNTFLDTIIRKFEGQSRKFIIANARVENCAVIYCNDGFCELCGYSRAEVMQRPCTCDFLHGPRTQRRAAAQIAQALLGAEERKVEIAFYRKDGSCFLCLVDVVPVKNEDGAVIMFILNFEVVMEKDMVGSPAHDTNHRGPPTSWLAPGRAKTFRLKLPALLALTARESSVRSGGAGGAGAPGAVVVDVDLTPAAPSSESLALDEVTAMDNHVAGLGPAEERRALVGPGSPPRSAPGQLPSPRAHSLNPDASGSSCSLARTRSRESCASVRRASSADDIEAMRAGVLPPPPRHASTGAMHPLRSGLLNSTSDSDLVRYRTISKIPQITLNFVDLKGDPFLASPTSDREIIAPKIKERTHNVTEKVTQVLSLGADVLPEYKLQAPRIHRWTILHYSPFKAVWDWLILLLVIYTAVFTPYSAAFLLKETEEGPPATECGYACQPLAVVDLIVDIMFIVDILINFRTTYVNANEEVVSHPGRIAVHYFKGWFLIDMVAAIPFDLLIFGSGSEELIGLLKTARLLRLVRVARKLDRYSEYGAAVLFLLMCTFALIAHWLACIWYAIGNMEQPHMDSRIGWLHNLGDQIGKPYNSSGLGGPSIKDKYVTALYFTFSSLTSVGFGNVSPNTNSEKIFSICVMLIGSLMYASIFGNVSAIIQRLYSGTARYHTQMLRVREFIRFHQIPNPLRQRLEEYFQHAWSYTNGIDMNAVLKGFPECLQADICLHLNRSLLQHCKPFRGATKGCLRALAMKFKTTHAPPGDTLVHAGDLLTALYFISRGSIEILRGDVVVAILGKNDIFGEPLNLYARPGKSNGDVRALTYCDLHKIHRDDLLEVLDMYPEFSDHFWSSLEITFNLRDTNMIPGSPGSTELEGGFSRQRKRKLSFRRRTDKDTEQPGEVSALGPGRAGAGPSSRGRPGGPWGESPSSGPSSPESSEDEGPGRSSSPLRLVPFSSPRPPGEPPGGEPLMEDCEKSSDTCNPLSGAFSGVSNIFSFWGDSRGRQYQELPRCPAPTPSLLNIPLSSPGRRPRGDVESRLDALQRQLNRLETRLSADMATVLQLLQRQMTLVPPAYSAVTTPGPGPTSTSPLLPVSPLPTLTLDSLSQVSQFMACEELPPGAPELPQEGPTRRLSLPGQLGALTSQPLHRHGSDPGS

[4] = Oral bioavailability in rat; format: ADME, organism-based; conditions: in vivo
[5] = Plasma half life in iv dosed rat; format: ADME, organism-based

T1 sequence (P32245 whole entry): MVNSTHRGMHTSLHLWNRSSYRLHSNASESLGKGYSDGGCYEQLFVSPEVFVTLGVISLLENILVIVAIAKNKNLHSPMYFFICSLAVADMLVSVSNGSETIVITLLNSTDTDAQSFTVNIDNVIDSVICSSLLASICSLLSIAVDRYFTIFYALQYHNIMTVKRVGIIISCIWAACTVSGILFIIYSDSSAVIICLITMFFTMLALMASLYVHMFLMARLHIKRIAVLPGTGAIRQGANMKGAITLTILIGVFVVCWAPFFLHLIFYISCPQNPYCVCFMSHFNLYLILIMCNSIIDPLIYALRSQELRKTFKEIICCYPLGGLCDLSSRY

## COc1ccc(Br)cc1CCc1c(F)cccc1C(=O)/N=C(\N)NCCCCN(C)Cc1cccc2ccccc12
Melanocortin receptor 4 [1]
  Ki: 57 nM
Melanocortin receptor 4 [2]
  IC50: 1200 nM

## COc1ccc(Br)cc1CCc1c(F)cccc1C(=O)/N=C(\N)NCCCCN1CCc2ccccc2C1
Melanocortin receptor 4 [1]
  Ki: 26 nM
Melanocortin receptor 4 [2]
  IC50: 650 nM

## CCN(CC)CCCC(C)N=C(N)NC(=O)c1cccc(F)c1OCc1cc(Br)ccc1OC (stereo not given)
Melanocortin receptor 4 [1]
  Ki: 900 nM
Melanocortin receptor 4 [2]
  IC50: 530 nM

## CCN(CC)CCCC(C)/N=C(/N)NC(=O)c1cccc(F)c1CCc1cc(Br)ccc1OC (stereo not given)
Melanocortin receptor 4 [1]
  Ki: 4.3 nM
Melanocortin receptor 4 [2]
  IC50: 130 nM

## CCCCN=C(N)NC(=O)c1cccc(F)c1CCc1cc(Br)ccc1OC
Melanocortin receptor 4 [1]
  Ki: 920 nM

## CCN(CC)CCCC(C)/N=C(/N)NC(=O)c1cccc(F)c1CCc1cccc2ccccc12 (stereo not given)
Melanocortin receptor 4 [1]
  Ki: 89 nM
Melanocortin receptor 4 [2]
  IC50: 1500 nM

## CCN1CCC(C/N=C(/N)NC(=O)c2cccc(F)c2CCc2cc(Br)ccc2OC)CC1
Melanocortin receptor 4 [1]
  Ki: 2.8 nM
Melanocortin receptor 4 [2]
  IC50: 97 nM

## CCN(CC)CCCC(C)N=C(N)NC(=O)c1cccc(F)c1CCc1ccccc1Cl (stereo not given)
Melanocortin receptor 4 [1]
  Ki: 26000 nM
Melanocortin receptor 4 [2]
  IC50: > 33000 nM

## CCN(CC)CCCC(C)/N=C(\NC(=O)c1cccc(F)c1CCc1cc(Br)ccc1OC)NC(C)C (stereo not given)
Melanocortin receptor 4 [1]
  Ki: 2500 nM
Melanocortin receptor 4 [2]
  IC50: 17000 nM

## COc1ccc(Br)cc1CCc1c(Cl)cccc1C1=NCCN1
[3]
  Ki: 840 nM

## COc1ccc(Br)cc1CCc1c(F)cccc1C(=O)/N=C(\N)NCCCCN1CCCCC1
Melanocortin receptor 4 [1]
  Ki: 0.58 nM
Melanocortin receptor 4 [2]
  IC50: 70 nM

## COc1ccc(Br)cc1CCc1c(F)cccc1C(=O)/N=C(\N)NCCCNC1CCCCC1
Melanocortin receptor 4 [1]
  Ki: 80 nM
Melanocortin receptor 4 [2]
  IC50: 5700 nM

## COc1ccc(Br)cc1CCc1c(F)cccc1C(=O)NC(N)=NCCCN1CCN(C)CC1
Melanocortin receptor 4 [1]
  Ki: 64 nM
Melanocortin receptor 4 [2]
  IC50: 670 nM

## CCN(CC)CCCC(C)N=C(N)NC(=O)c1cccc(F)c1CCc1cc(Br)ccc1Cl (stereo not given)
Melanocortin receptor 4 [1]
  Ki: 110 nM
Melanocortin receptor 4 [2]
  IC50: 660 nM

## COc1ccc(Br)cc1CCc1c(F)cccc1C(=O)/N=C(\N)NCCCN1CCCCC1
[4]
  bioavailability: 6.3%
[5]
  half-life: 31 h
Melanocortin receptor 4 [1]
  Ki: 3.2 nM
Melanocortin receptor 4 [2]
  IC50: 330 nM

## COc1ccc(Br)cc1CCc1c(F)cccc1C(=O)/N=C(\N)NCCN1CCCC1
Melanocortin receptor 4 [1]
  Ki: 190 nM
Melanocortin receptor 4 [2]
  IC50: 4500 nM

## CCN(CC)CCCC(C)/N=C(\NC(=O)c1cccc(F)c1CCc1cc(Br)ccc1OC)Nc1ccccc1 (stereo not given)
Melanocortin receptor 4 [1]
  Ki: 4100 nM

## COc1ccc(Br)cc1CCc1c(F)cccc1C(=O)/N=C(\N)NCC(C)C
Melanocortin receptor 4 [1]
  Ki: 770 nM
Melanocortin receptor 4 [2]
  IC50: 8500 nM

## COc1ccc(Br)cc1CCc1c(F)cccc1C(=O)NC(N)=NCCC1CCCCC1
Melanocortin receptor 4 [1]
  Ki: 2600 nM

## CCN(CC)CCCC(C)N=C(N)NC(=O)c1ccsc1CCc1cc(Br)ccc1OC (stereo not given)
Melanocortin receptor 4 [1]
  Ki: 11 nM
Melanocortin receptor 4 [2]
  IC50: 260 nM

## CCN(CC)CCCC(C)N=C(N)NC(=O)c1cccc(F)c1CCc1ccc2ccccc2c1 (stereo not given)
Melanocortin receptor 4 [1]
  Ki: 690 nM
Melanocortin receptor 4 [2]
  IC50: 1800 nM

## COc1ccc(Br)cc1CCc1c(F)cccc1C(=O)/N=C(\N)NCCCCN(C)Cc1ccccc1
Melanocortin receptor 4 [1]
  Ki: 5.1 nM
Melanocortin receptor 4 [2]
  IC50: 180 nM

## CCN(CC)CCCC(C)/N=C(/NC)NC(=O)c1cccc(F)c1CCc1cc(Br)ccc1OC (stereo not given)
Melanocortin receptor 4 [1]
  Ki: 6300 nM

## CCN(CC)CCCC(C)N=C(N)NC(=O)c1cccc(F)c1CCc1cc(OC)cc(OC)c1 (stereo not given)
Melanocortin receptor 4 [1]
  Ki: 14 nM
Melanocortin receptor 4 [2]
  IC50: 170 nM

## CCN(CC)CCCC(C)N=C(N)NC(=O)c1cccc(Cl)c1CCc1cc(Br)ccc1OC (stereo not given)
Melanocortin receptor 4 [1]
  Ki: 0.83 nM
Melanocortin receptor 4 [2]
  IC50: 260 nM

## COc1ccc(Br)cc1CCc1c(F)cccc1C(=O)/N=C(\N)NCCCCN1CCC2CCCCC2C1 (stereo not given)
Melanocortin receptor 4 [1]
  Ki: 21 nM
Melanocortin receptor 4 [2]
  IC50: 390 nM

## COc1ccc(Br)cc1CCc1c(F)cccc1C1=NCCN1
[4]
  bioavailability: 4.6%
[5]
  half-life: 1 h

## COc1ccc(Br)cc1CCc1c(Cl)cccc1C(=O)N=C(N)N
Melanocortin receptor 4 [1]
  Ki: 700 nM
Melanocortin receptor 4 [2]
  IC50: 2580 nM

## COc1ccc(Br)cc1CCc1c(F)cccc1C(=O)NC(N)=NCC1CCNCC1
Melanocortin receptor 4 [1]
  Ki: 13 nM
Melanocortin receptor 4 [2]
  IC50: 31 nM
